Measured values: PMC3574217 (Journal of medicinal chemistry, 2013)

Columns and labels:
[1] = tested on: LAD ligation model of ischemic heart failure in mice; test: LAD ligation ischemic heart failure model, echocardiography-derived FS; format: in vivo, mouse; conditions: infusion 28 days
[2] = tested on: LAD ligation model of ischemic heart failure in mice; test: Ex vivo isolated working heart preparation; format: in vivo, mouse; conditions: infusion 28 days
[3] = tested on: CSQ-overexpressing mice with heart failure; test: CSQ-overexpressing mouse model of heart failure; format: in vivo
[4] = 24 h
Stability in rat plasma = conditions: 24 h, 37°C
[5] = Stability in rat liver microsomes; conditions: 24 h, 37°C
[6] = tested on: adult WT murine cardiac ventricular myocytes; test: Contractile response; format: cell-based, mouse; conditions: vs control basal condition, P<0.05
[7] = tested on: CSQ-overexpressing mice with heart failure; conditions: chronic administration; cited from earlier work
aorta ring preparations = conditions: cited from earlier work
cardiac P2X4R = conditions: cardiomyocytes obtained from the CSQ mouse; cited from earlier work

| SMILES | protection in the LAD model (increase in FS), in words [1] | protection in ex vivo working heart (+dP/dt), in words [2] | cardioprotection in CSQ model, in words ([3]; infusion) | also measured |
| --- | --- | --- | --- | --- |
| [2H]C([2H])(OP(=O)(OCC)OCC)[C@@]12C[C@@H]1[C@@H](n1cnc3c(N)nc(Cl)nc31)[C@H](O)[C@@H]2O [Compound 10, (1’S,2’R,3’S,4’R,5’S)-4-(6-Amino-2-chloro-9H-purin-9-yl)-2,3-(dihydroxyl)-1-[(di-ethylphosphate)dideuteromethyl]bicyclo[3.1.0]hexane] | did not fully protect |  |  |  |
| CCOP(=O)(OCC)OC[C@@]12C[C@@H]1[C@@H](n1cnc3c(N)nc(Cl)nc31)[C@H](O)[C@@H]2O [Compound 7, (1’S,2’R,3’S,4’R,5’S)-4-(6-Amino-2-chloro-9H-purin-9-yl)-1-[(diethylphosphate)methyl]-2,3-(dihydroxy)-bicyclo[3.1.0]hexane] | highly protective | able to improve function | cardioprotective activity was seen |  |
| [2H]C([2H])(OP(=O)(O)O)[C@@]12C[C@@H]1[C@@H](n1cnc3c(N)nc(Cl)nc31)[C@H](O)[C@@H]2O [Compound 4, (1’S,2’R,3’S,4’R,5’S)-4-(6-Amino-2-chloro-9H-purin-9-yl)-1-[phosphoryloxydideuteromethyl]-2,3-diol-bicyclo[3.1.0]hexane] | significantly protective |  |  |  |
| CCOP(=O)(C[C@@]12C[C@@H]1[C@@H](n1cnc3c(N)nc(Cl)nc31)[C@H](O)[C@@H]2O)OCC [Compound 14, Diethyl-(1’S,2’R,3’S,4’R,5’S)-4’-(6-amino-2-chloropurin-9-yl)-2’,3’-(hydroxy)-bicyclo[3.1.0]hexane phosphonate] |  | did not protect | inactive | stability in aqueous medium at pH 1 ([4]; 50°C): unable to demonstrate any hydrolysis; stability in aqueous medium at pH 11 ([4]; 50°C): unable to demonstrate any hydrolysis; stability in the presence of rat plasma (Stability in rat plasma): stable; stability in the presence of microsomes from rat liver [5]: unable to demonstrate any hydrolysis |
| Nc1nc(I)nc2c1ncn2[C@H]1[C@H](O)[C@H](O)[C@]2(CP(=O)(O)O)C[C@H]12 [Compound 6, (1’S,2’R,3’S,4’R,5’S)-4’-(6-Amino-2-iodoropurin-9-yl)-2’,3’-(dihydroxy)-1’-(phosphonomethylene)-bicyclo[3.1.0]hexane] |  | able to improve function | abolished protection | effect on FS in CSQ mice ([3]; infusion, compared to vehicle): did not improve FS; LV wall thickness in CSQ mice, in words ([3]; vs NS-infused CSQ mice): did not improve FS (Table S2) or prevent LV wall thinning |
| Nc1nc(Cl)nc2c1ncn2[C@H]1[C@H](O)[C@H](O)[C@]2(CCP(=O)(O)O)C[C@H]12 [Compound 3, (1’S,2’R,3’S,4’R,5’S)-4’-(6-amino-2-chloropurin-9-yl)-2’,3’-(dihydroxy)-1’-(phosphonoethylene)-bicyclo[3.1.0]hexane] |  |  |  | contraction shortening (CS) [6]: modest increase in contraction shortening; cardioprotection in CSQ mouse model [7]: protective |
| CCOP(=O)(OCC)SC[C@@]12C[C@@H]1[C@@H](n1cnc3c(N)nc(Cl)nc31)[C@H](O)[C@@H]2O [Compound 11, (1’S,2’R,3’S,4’R,5’S)-4-(6-Amino-2-chloro-purin-9-yl)-1-[O,O-diethyl S-methyl phosphorothioate]-2,3-(dihydroxyl)-bicyclo-[3.1.0]hexane] | protective |  |  |  |
| Nc1nc(Cl)nc2c1ncn2[C@H]1[C@H](O)[C@H](O)[C@]2(CSP(=O)(O)O)C[C@H]12 [Compound 5, (1’S,2’R,3’S,4’R,5’S)-4-(6-Amino-2-chloro-purin-9-yl)-2,3-(dihydroxy)-1-[monophosporothioate]-bicyclo-[3.1.0]hexane] |  | able to improve function | could protect |  |
| CCOP(=S)(OCC)SC[C@@]12C[C@@H]1[C@@H](n1cnc3c(N)nc(Cl)nc31)[C@H](O)[C@@H]2O [Compound 13, (1’S,2’R,3’S,4’R,5’S)-4-(6-Amino-2-chloro-purin-9-yl)-1-[O,O-diethyl S-methyl phosphorodithioate]-2,3-(dihydroxyl)-bicyclo-[3.1.0]hexane] | protective |  |  |  |
| Nc1nc(Cl)nc2c1ncn2[C@H]1[C@H](O)[C@H](O)[C@@]2(COP(=O)(O)O)C[C@@H]12 [Compound 1, (1’S,2’R,3’S,4’R,5’S)-4-(6-amino-2-chloro-9H-purin-9-yl)-1-[phosphoryloxy-methyl]bicyclo[3.1.0]hexane-2,3-diol] |  |  |  | contraction shortening (CS) [6]: modest increase in contraction shortening; vasodilator action (aorta ring preparations): devoid of any vasodilator action; cardioprotection in CSQ mouse model [7]: rescued the hypertrophic and heart failure phenotype; stability to acidic conditions ([4]; pH 1.5, 37°C, data not shown): stable; P2X-like current in cardiomyocytes (cardiac P2X4R): induced a current that is characteristic of the action of the cardiac P2X4R |
| CC(C)OP(=O)(OC[C@@]12C[C@@H]1[C@@H](n1cnc3c(N)nc(Cl)nc31)[C@H](O)[C@@H]2O)OC(C)C [Compound 8, (1’S,2’R,3’S,4’R,5’S)-4-(6-Amino-2-chloro-9H-purin-9-yl)-1-[(diisopropylphosphate)methyl]-2,3-(dihydroxy)-bicyclo[3.1.0]hexane] | highly protective |  |  |  |
| CC(C)(C)OP(=O)(OC[C@@]12C[C@@H]1[C@@H](n1cnc3c(N)nc(Cl)nc31)[C@H](O)[C@@H]2O)OC(C)(C)C [Compound 9, (1’S,2’R,3’S,4’R,5’S)-4-(6-Amino-2-chloro-9H-purin-9-yl)-2,3-(dihydroxy)-1-[(t-butylphosphate)methyl]-bicyclo[3.1.0]hexane] |  | able to improve function |  |  |
